{
  "source": "patent US20260027073A1",
  "about": "“USE OF SMALL-MOLECULE COMPOUND HAVING NAPHTHYLAMINE STRUCTURE” (HANGZHOU PHECDAMED CO., LTD., priority 2023, published 2026)",
  "key": {"[1]": {"test_system": "CUMS animal model of depression", "assay": "CUMS depression model behavioral tests", "format": "in vivo, C57BL/6J mice", "settings": "Fluoxetine 30 mg/kg", "excerpt": "Depression, also known as depressive disorder, is characterized by significant and long-lasting depressed state of mind as the main clinical feature. The CUMS animal model of depression is a chronic unpredictable animal stress model, which simulates part of the stressor, the external material environmental stimulus, and will cause dysfunctions in the animal organism through different stress stimuli, leading to occurrence of the psychiatric disease depression. […] During this period, carefully observing the status of each mouse. • (6) Basket shaking: Placing the mice in an empty basket and shaking the basket drastically, with the criterion that the mice in the basket are unable to stand firm and sway with the shaking of the basket, for 1 hour. • (7) Olfactory stimulation: Placing anise and other spices in the mice's baskets as a means of olfactory stimulation.\nThe above seven experiments were conducted randomly during a week as a way to achieve unpredictability with 4 weeks of continuous stimulation.\nAt the end of the modeling, an open field test experiment was conducted to screen the modeled animals and group the successful modeled animals into five groups: normal group (Control), model control group (Model), positive drug treatment group (Fluoxetine), TJ0113 10 mg/kg treatment group (10 mg/kg), […], TJ0113 30 mg/kg treatment group (30 mg/kg). There were 10 mice in each group, and the administration treatment was administered by gavage, the normal and model control groups were given vehicle treatment, the vehicle was 0.5% CMC-Na, the positive drug fluoxetine hydrochloride was solubilized in saline and administered at a dose of 30 mg/kg, and the TJ0113 vehicle was 0.5% CMC-Na, and administered at a dose of 10 mg/kg and 30 mg/kg, respectively. 4 weeks after the end of the administration, behavioral tests were performed.\n• (1) Adaptive feeding: Adaptive feeding with 1% sucrose water and plain water for 2 d before the start of the test, at 1 d, interchanging the sugar water and plain water to avoid positional differences for the animals, and fasting food and water for 1 d after adaption; • (2) Formal test: after fasting food and water, 1% sucrose water and plain water were given to the animals (the initial mass of sugar water and plain water is known), and weighing the remaining mass of sugar water/plain water of each animal after 24 h, and calculating the consumption rates of sugar water A and plain water B; • (3) Data analysis: sugar water preference rate=(A/A+B)×100%.\n• (1) adapting to the environment: placing the animals in the test environment for 60 min to adapt to the environment before the test; • (2) Formal test: fixing the rear 1/3 of the mouse tail with tape and suspending on the stand of the experimental apparatus, with the head 15 cm from the bottom; • (3) starting timing camera, and stopping after 6 min, and recording the immobility time of the mice within 4 min; • (4) At the end of the test, using 75% alcohol to wipe the bottom and inner wall of the chamber.\n• (1) adapting to the environment: placing the animals in the test environment for 60 min to adapt to the environment before the test; • (2) Formal test: placing the animals to be tested in the middle of the open field, and using the ANY-Maze software to collect the data, the test time is 10 min, and the feces and urine must be removed at the end of each round and disinfected and wiped dry with 75% alcohol; • (3) Analysis of results: total moved distance and average speed during the activity, time spent in the center area and time spent in the corner area."}, "[2]": {"assay": "In vitro liver microsomal stability test", "settings": "microsomes", "method": "Ketanserin was selected as the reference compound. The specific method was as follows:\n0.1 M K3PO4 (pH 7.4) buffer and 3×NADPH stock solution (6 mM, 5 mg/mL) were configured and preheated in a 37° C. water bath; configuration of the test compounds and the control compounds (spiking solution): adding 5 μL of the compound stock solution ([…]) into 95 μL of acetonitrile; configuration of 1.5 μM spiking solution in microsomes (0.75 mg/mL): adding 1.5 μL of spiking solution and 18.75 μL of liver microsomal solution (20 mg/mL) into 479.75 μL of K3PO4 buffer; adding 30 μL of spiking solution in microsomes into the multiwell plate, and incubating at 37° C. for 5 min; adding 15 μL of NADPH storage solution into each well to start to react, and timing; adding 150 μL of acetonitrile solution containing IS at 0 min, 5 min, 15 min, 30 min, and 45 min, respectively, stopping the reaction; oscillating for 10 min, and then centrifuging at 6,000 rpm for 15 min; taking 80 μL of supernatant from each well for LC/MS detection, and calculating T1/2."}, "[3]": {"test_system": "LPS-induced acute lung injury mice", "assay": "LPS-induced acute lung injury", "format": "in vivo, C57BL/6J mice", "method": "Male mice C57BL/6J aged 6-8 weeks and weighing 18-22 g were selected for the study. After fixing the mice, 50 μl of PBS was injected into the airways of the mice under direct laryngoscopic vision to form a control group, and 5 mg/kg of LPS (E.coil) was dissolved in 50 μl of PBS and dripped to form a model group. The experiments were divided into […], each having 6 mice, namely, NS group (control group, airway drip of 50 μl PBS), LPS group (model control group, airway drip of 50 μl LPS), LPS+10 mg/kg group (airway drip of 50 μl LPS and given 10 mg/kg TJ01-013 treatment), LPS+20 mg/kg group (airway drip of 50 μl LPS and given 20 mg/kg TJ01-013 treatment), LPS+30 mg/kg group (airway drip of 50 μl LPS and given 30 mg/kg TJ01-013 treatment), LPS+Sivelestat group (Positive control group, airway drip of 50 μl LPS and given 5 mg/kg Sivelestat treatment). All groups were administered […] by intraperitoneal injection in a volume of 200 μl 1 h and 7 h after airway drip, and the mice were euthanized 24 h later, bronchoalveolar lavage fluid (BALF) was taken, and the levels of inflammatory factors in the bronchoalveolar lavage fluid were detected and the changes in the transcriptional levels of tissue-associated inflammatory factors were observed. • (2) taking and observing of Bronchoalveolar lavage fluid (BALF)\nUse chloral hydrate intraperitoneal injection to make mice die of rapid overdose anesthesia, place mice in supine position on the dissection table, fix the limbs, disinfect the skin of the neck of the mice with 75% ethanol, incise the skin along the midline of the neck, bluntly separate the subcutaneous connective tissues and muscles with hemostatic forceps, expose the trachea, separate connective tissues on both sides of the trachea and between the trachea and the esophagus, and free the trachea. Two surgical sutures about 20 cm long were threaded between the trachea and esophagus. A 24G intravenous cannula needle was inserted at a 30-degree angle from the connective tissue membrane between the thyroid cartilage and the cricoid cartilage, and the intravenous cannula needle was delivered in the direction of the tracheal eminence. A surgical suture placed between the tracheo-esophageal was ligated at the entry of the cannula into the trachea and at the distal end of the cannula, respectively, and tied as tightly as possible to secure the cannula and trachea. 0.8 ml of PBS was aspirated with a 1 ml syringe, and the syringe was connected to the inlet end of the intravenous cannula needle, and PBS was slowly injected into the trachea, stayed for 30 seconds and then was withdrawn back, and a milky white frothy liquid withdrawn back was visible, and the lavage was repeated three times, and the liquid was centrifuged at 1500 rpm/min for 10 min, and the supernatant was used for cytokine assay, and the cell precipitates were coated after resuspending with PBS for Giemsa staining and sorting and counting.\nThe levels of inflammatory factors (inflammatory factors including IL-6, CXCL1, CXCL2, etc.) in BALF supernatant were detected according to the instructions of the ELISA test kit.\nThe obtained cDNA was amplified on a 96-well PCR plate using a LightCycler 480 system, and the gene level was determined by using glyceraldehyde 3-phosphate dehydrogenase (GAPDH) as an internal standard."}, "[4]": {"test_system": "Androgen-induced benign prostatic hyperplasia in rats", "assay": "Androgen-induced benign prostatic hyperplasia", "format": "in vivo, SD rats", "settings": "TJ01-013 30 mg/kg, Finasteride 10 mg/kg", "method": "Androgen-induced benign prostatic hyperplasia in rats has been used in many research fields. The specific model was constructed as follows: 180 g-200 g male SD rats were given 30 mg/kg androgen intramuscularly every other day, and 15 consecutive androgen injections were given for modeling, and the experiments were divided into […], a negative control group (Sham), a model control group (Control), TJ01-013 treatment group (TJ01-013, 30 mg/kg), Finasteride treatment group (Finasteride, 10 mg/kg), and TJ01-013+Finasteride treatment group (13+F). The drug was administered at the same time as the androgen modeling, the mode of administration was by oral gavage, the volume of the administration was 10 ml/kg, the frequency of administration was daily, and the administration was ended on the 30th day, the rats were weighed and euthanized, and the prostate and urethra of the rats were taken and weighed, and the organ coefficients (weight of the prostate gland/weight of the rats) were finally calculated."}, "[5]": {"test_system": "LPS-induced sepsis in mice", "assay": "LPS-induced sepsis survival", "format": "in vivo, C57 mice", "settings": "8th day; 10 mg/kg intraperitoneal once a day; LPS alone about 20%; FIG. 33", "method": "A constructed preclinical sepsis model is a LPS-induced sepsis in mice. Injection of purified LPS into mice by intraperitoneal route or intravenous route can lead to activation of the innate immune system and simulate fulminant Gram-negative bacterial infections, the specific modeling method is as follows: 20-25 g C57 mice were selected, and 20 mg/kg LPS was injected intraperitoneally according to the body weight (the LPS was dissolved with PBS), and the experiment was divided into three groups, a model control group (LPS), a positive control treatment group (prednisone, 10 mg/kg), TJ01-013 treatment group (TJ01-013, 10 mg/kg), the mode of administration was intraperitoneal injection, the volume of administration was 5 ml/kg, the frequency of administration was once a day, and the biological deaths and changes in body weights of the mice were observed and recorded every day, and the mice were regarded as physiologically dead if their body weights decreased by 20% or more compared with that before the administration of LPS. Survival curves were plotted based on deaths observed up to 8 days after administration."}, "HGPS-MSC": {"test_system": "HGPS-MSC", "assay": "Senescence of HGPS patient derived mesenchymal stem cells", "format": "cell-based, human", "settings": "10 μM", "method": "Mesenchymal stem cells HGPS-MSC differentiated from pluripotent stem cells (iPSC) of patients with Hutchinson-Gilford Progeria Syndrome (HGPS) were taken for culture, and the experiment was divided into three groups, namely, young cells cultured for 7 generations, labeled as Con-Y; senescent cells cultured for 12 generations, labeled as Con-O; and the administration group to which 10 μM of TJ01-013 was added during the process of culture, similarly cultured up to the 12th generation, labeled as Con-O+TJ01-013; the drug administration group to which 10 μM positive drug Ionafarnib was added during the process of culture, similarly cultured up to the 12th generation, and labeled as Con-O+ Ionafarnib; after the end of the treatment, all the cells were placed under the microscope to observe the morphology of the cells, and the proportion of SA-β-gal+ cells was counted. The levels of DNA damage marker γ-H2AX and heterochromatin modification H3K9me3 after TJ01-013 treatment and Ionafarnib treatment were detected by immunofluorescence technique (the specific procedure was described previously)."}, "[6]": {"settings": "TJ01-013 10, 20, 30 mg/kg, Sivelestat 5 mg/kg, FIG. 26"}, "[7]": {"settings": "concentration-dependent for TJ01-013, FIG. 27"}},
  "data": [
    {"smiles": "CNCCC(Oc1ccc(C(F)(F)F)cc1)c1ccccc1", "note": "(stereo not shown) [Fluoxetine, reference compound]", "values": [
      {"measurement": "average movement speed, open field", "setting": "[1]; TJ0113 10 mg/kg and 30 mg/kg, FIG. 61", "result": "significantly increased"},
      {"measurement": "sugar water preference", "setting": "[1]; TJ0113 30 mg/kg, gavage, FIG. 57", "result": "significantly increased"},
      {"measurement": "time in despair (immobility), tail-hanging experiment", "setting": "[1]; TJ0113 30 mg/kg, FIG. 58", "result": "significantly decreased"},
      {"measurement": "distance moved, open field", "setting": "[1]; TJ0113 30 mg/kg, FIG. 59", "result": "significantly increased"},
      {"measurement": "time in the edge area of the open field", "setting": "[1]; TJ0113 30 mg/kg, FIG. 60", "result": "significantly decreased"}
    ]},
    {"smiles": "CN(c1cc([S+]([O-])CC(=O)O)c(O)c2ccccc12)S(=O)(=O)c1ccc(Br)cc1", "note": "(stereo not shown) [I-2]", "values": [
      {"measurement": "liver microsomal stability (elimination half-life T1/2)", "setting": "[2]", "result": "superior liver microsomal stability"}
    ]},
    {"smiles": "CC(C)(C)C(=O)Oc1ccc(S(=O)(=O)Nc2ccccc2C(=O)NCC(=O)O)cc1", "note": "[Sivelestat, reference compound]", "values": [
      {"measurement": "CXCL1 level in alveolar lavage fluid (ELISA)", "setting": "[3]; [6]", "result": "significantly decreased"},
      {"measurement": "CXCL2 level in alveolar lavage fluid (ELISA)", "setting": "[3]; [6]", "result": "no significant effect"},
      {"measurement": "IL-6 level in alveolar lavage fluid (ELISA)", "setting": "[3]; [6]", "result": "no significant effect"},
      {"measurement": "CXCL1 transcript level in lung tissue", "setting": "[3]; [7]", "result": "significantly decreased"},
      {"measurement": "CXCL2 transcript level in lung tissue", "setting": "[3]; [7]", "result": "no significant effect"},
      {"measurement": "IL-6 transcript level in lung tissue", "setting": "[3]; [7]", "result": "no significant effect"}
    ]},
    {"smiles": "CC(C)(C)NC(=O)[C@H]1CC[C@H]2[C@@H]3CC[C@H]4NC(=O)C=C[C@]4(C)[C@H]3CC[C@]12C", "note": "[Finasteride]", "values": [
      {"measurement": "prostate weight", "setting": "[4]; oral gavage daily to day 30, FIG. 34", "result": "reduced"},
      {"measurement": "organ coefficient of prostate", "setting": "[4]; oral gavage daily, FIG. 35", "result": "reduced the organ coefficient of prostate, but there was no significant difference"},
      {"measurement": "weight of urethra and bladder", "setting": "[4]; oral gavage daily, FIG. 36", "result": "tendency of decreasing its weight"}
    ]},
    {"smiles": "C[C@]12C=CC(=O)C=C1CC[C@@H]1[C@@H]2C(=O)C[C@@]2(C)[C@H]1CC[C@]2(O)C(=O)CO", "note": "[prednisone, reference compound]", "values": [
      {"measurement": "survival rate", "setting": "[5]", "result": 100, "unit": "%"}
    ]},
    {"smiles": "NC(=O)N1CCC(CC(=O)N2CCC([C@H]3c4ncc(Br)cc4CCc4cc(Cl)cc(Br)c43)CC2)CC1", "note": "[Ionafarnib, reference compound]", "values": [
      {"measurement": "percentage of SA-β-gal+ cells", "setting": "HGPS-MSC; 12th generation, vs Con-O, FIG. 54", "result": "significantly decreased"},
      {"measurement": "level of DNA damage marker γ-H2AX", "setting": "HGPS-MSC; FIG. 55", "result": "significantly reduced"},
      {"measurement": "expression level of heterochromatin-modified H3K9me3", "setting": "HGPS-MSC; FIG. 56", "result": "restored its expression level to some extent"}
    ]}
  ]
}
